Measurements: patent publication US20180303807A1, “ANDROGEN RECEPTOR LIGANDS” (DUKE UNIVERSITY, priority 2015, published 2018)

Biological target: T1, AR (Homo sapiens, UniProt P10275)
T1 construct: expressed in transfected cells; host or cells: CV1 cells
T1 sequence (P10275 1-920): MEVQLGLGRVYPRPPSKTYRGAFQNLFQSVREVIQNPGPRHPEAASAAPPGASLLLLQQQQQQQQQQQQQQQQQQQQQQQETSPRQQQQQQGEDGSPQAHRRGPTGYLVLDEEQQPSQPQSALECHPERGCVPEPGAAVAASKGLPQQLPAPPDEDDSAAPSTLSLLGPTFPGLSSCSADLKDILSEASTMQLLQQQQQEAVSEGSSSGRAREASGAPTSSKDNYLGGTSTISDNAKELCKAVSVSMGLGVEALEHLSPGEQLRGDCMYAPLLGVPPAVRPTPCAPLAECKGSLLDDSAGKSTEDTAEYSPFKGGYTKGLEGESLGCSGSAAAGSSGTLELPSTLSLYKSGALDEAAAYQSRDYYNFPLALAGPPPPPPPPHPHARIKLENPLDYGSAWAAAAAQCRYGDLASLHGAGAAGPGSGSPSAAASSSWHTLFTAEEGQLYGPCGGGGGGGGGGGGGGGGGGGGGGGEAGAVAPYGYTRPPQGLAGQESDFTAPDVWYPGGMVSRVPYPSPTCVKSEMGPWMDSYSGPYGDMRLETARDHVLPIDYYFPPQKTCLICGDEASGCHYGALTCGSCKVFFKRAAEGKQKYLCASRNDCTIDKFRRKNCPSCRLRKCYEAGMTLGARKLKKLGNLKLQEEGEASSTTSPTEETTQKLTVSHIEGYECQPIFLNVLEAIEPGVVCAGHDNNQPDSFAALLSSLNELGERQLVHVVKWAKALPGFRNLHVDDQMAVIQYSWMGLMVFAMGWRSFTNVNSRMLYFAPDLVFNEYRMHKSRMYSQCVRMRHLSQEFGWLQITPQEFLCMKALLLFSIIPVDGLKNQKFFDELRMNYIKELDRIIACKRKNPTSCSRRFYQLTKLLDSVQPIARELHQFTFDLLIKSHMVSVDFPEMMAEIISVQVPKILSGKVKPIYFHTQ
Experiment: Reporter gene assay, AR transcriptional (MMTV-Luc) in CV1 cells
Format: cell-based
Settings: pcDNA-AR + MMTV-Luc, 0.1 nM R1881 plus test compound, 24 hrs, read-out: B1 = AR transcriptional IC50 (μM) in CV1 cells
Method in brief: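 CV1 cells transiently co-transfected with human AR, MMTV-Luc reporter and Renilla-Luc (transfection efficiency and toxicity read-out), then stimulated 24 h with 0.1 nM R1881 plus increasing test compound concentrations. Firefly and Renilla luciferase quantified by dual-luciferase assay; IC50 derived from concentration-response.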

| IC50 | SMILES |
| --- | --- |
| 4.4 µM | O=C1CCCC2=C1C(c1ccc([N+](=O)[O-])cc1)c1c(ccc3ccccc13)N2 (stereo not drawn) [Compound A1, 12-(4-nitrophenyl)-8,9,10,12-tetrahydrobenzo[a]acridin-11(7H)-one] |
| 2.6 µM | CC1CC(=O)C2=C(C1)Nc1ccc3ccccc3c1C2c1ccc(F)cc1 (stereo not drawn) [Compound A4] |
| 5.7 µM | O=C1CCCC2=C1Nc1ccc3ccccc3c1C2c1ccc([N+](=O)[O-])cc1 (stereo not drawn) [Compound A10] |
